# Read-outs that look alike come from different tables or passages of the source.
# What was measured:
# CYP3A4 mRNA = details: human, 48 h, 25 µM
# From the text: (§1) FIG. 32A: Lanes 1 and 2, primary human hepatocytes; lanes 3 and 4, LS174T cells. FIG. 32B: Lanes 1 and 2, HepG2 cells; lanes 3 and 4, HepG2 that overexpress PXR (Hepg-PXR cells). FIG. 32C: Lanes 1 and 2, Caco-2; lanes 3 and 4, Caco-2 cells that overexpress PXR (Caco-PXR cells).
# (§2) Total RNA from the colon adenocarcinoma cell line LS174T was isolated and fractionated on a 1% formaldehyde gel and transferred onto a nylon membrane. The RNA blot was hybridized to ^32-P-labeled MDR1 cDNA probe (top panels), ^32-P-labeled CYP3A4 cDNA probe (middle panels), or 18s rRNA probe for normalization of RNA loading on the gel (bottom panels).
# (§3) FIG. 37 depicts MDR1 gene regulation in response to chrysin as studied by Northern blot analysis. […] Total RNA from the hepatocytes was isolated and fractionated on a 1% formaldehyde gel and transferred onto a nylon membrane. The RNA blot was hybridized to ^32-P-labeled MDR1 cDNA probe (top panels), ^32P-labeled CYP3A4 cDNA probe (middle panels), or 18s rRNA probe for normalization of RNA loading on the gel (bottom panels).
# Northern Blot analysis for MDR1 P-glycoprotein and CYP3A4 expression: Total RNA was prepared from cells (primary hepatocytes, LS174T, HepG2, or Caco-2) using Trizol reagent (Invitrogen, Carlsbad, Calif.). […]
# [1] = test system: AhR (dioxin response elements); assay: in vitro; details: human, fold induction of luciferase activity above DMSO, DRE12-6 cells, 28 hours; TCDD 10 nanomoles per liter, omeprazole 25, 2-AAF 100, DMBA 20 micromoles per liter
# MDR1 P-glycoprotein mRNA = assay: Northern blot of MDR1 P-glycoprotein expression (Example VI)
# From the text: FIG. 31 depicts MDR1 gene expression in LS174T cells as analyzed by Northern blot. […] Total RNA from the colon adenocarcinoma cell line LS174T was isolated and fractionated on a 1% formaldehyde gel and transferred onto a nylon membrane. The RNA blot was hybridized to ^32P-labeled MDR1 cDNA probe (top panel) or 18s rRNA probe for normalization of RNA loading on the gel (bottom panel).
# as §1, §2, §3
# Northern Blot analysis for MDR1 P-glycoprotein and CYP3A4 expression: Total RNA was prepared from cells (primary hepatocytes, LS174T, HepG2, or Caco-2) using Trizol reagent (Invitrogen, Carlsbad, Calif.). For Northern blots, 15 micrograms of total RNA was fractionated on a 1% formaldehyde gel and transferred onto a nylon membrane by capillary transfer. A 530-base pair fragment of MDR1 cDNA was obtained from PCR cloning using the sense primer […] The resulting fragment was ^32P-labeled by random priming (Invitrogen, Carlsbad, Calif.) for use as an MDR1 probe. […] All constructs and cDNAs were subjected to sequence analysis. Hybridization was performed with the ExpressHyb system according to the manufacturer's instructions (Clontech, Palo Alto, Calif.).
# [2] = test system: PXR / mdr1(dr4) response element; assay: Hep-PXR/Pgp-Luc stable cell luciferase assay
# Method: (§4) FIG. 35 depicts dose-response behavior to various PXR activators in stable cell lines overexpressing PXR and harboring DR4 response element. FIG. 35A: Results are shown for the stable cell line Hep-PXR/PgpLuc. FIG. 35B: Results are shown for the stable cell line Caco-PXR/PgpLuc.
# (§5) Cells were exposed to the test compounds for 48 hours at the concentrations indicated.
# FIG. 36 depicts the effect of environmental and botanical chemicals on luciferase activity in the stable cell line Hep-PXR/PgpLuc. Cells were inoculated into 96-well plates at a density of 2×10^4 cells per well. After overnight recovery, cells were treated with the test compounds at the concentrations indicated for 48 hours.
# (§6) Establishment of stable transformants containing both PXR and reporter plasmid and development of high throughput bioassay for PXR-dependent transactivation: The stable transformants Hep-PXR/mdr1(dr4)-Luc and Caco-PXR/mdr1(dr4)-Luc cell lines were generated from the parental cell lines HepG-PXR and Caco-PXR, respectively, according to the following procedure. The parental cell lines HepG-PXR and Caco-PXR, which overexpress PXR, were stably transfected with the luciferase reporter plasmid mdr1(dr4)-Luc. The transfected cells were cultured in DMEM (HepG-PXR cells) or in IMEM (Caco-PXR cells), both media supplemented with 10% fetal bovine serum and neomycin (700 micrograms per milliliter).
# (§7) For the induction assay, stable transformants were seeded in 96-wells plates at a density of 1×10^4 cells per well and allowed to recover overnight. Plates were treated with test compounds at varying concentrations, using 3 replicates per dose. After 48 hours of exposure to the test compound, cells were washed with phosphate buffered saline, lysis buffer was applied to the wells, and luciferase substrate added. Following 10 minutes for light adaptation, luminescence was monitored according to the manufacturer's instructions (Packard kit, Biomed).
# [3] = test system: PXR / mdr1(dr4) response element; assay: Transient transfection mdr1(dr4)-Luc reporter assay with PXR; details: Caco-2 cells transiently co-transfected with mdr1(dr4)-Luc and PXR; 48 hours
# [4] = test system: PXR / mdr1(dr4) response element; details: human, 48 h
# [5] = test system: PXR / mdr1(dr4) response element; assay: Caco-PXR/Pgp-Luc stable cell luciferase assay
# Method: as §4, §5, §6, §7
smiles,measurement,setting,value
O=c1cc(-c2ccccc2)oc2cc(O)cc(O)c12 [chrysin],CYP3A4 expression in primary hepatocytes (in words),CYP3A4 mRNA,induce the expression of both MDR1 and CYP3A4
same,fold induction,[1],4.2
same,MDR1 P-glycoprotein expression in primary human hepatocytes (in words),"MDR1 P-glycoprotein mRNA; human, 48 h, 25 µM",induce the expression of both MDR1 and CYP3A4
same,fold increase in luciferase activity,"[2]; human, 48 h",5 fold
"CC(=O)[C@H]1[C@H](C#N)C[C@H]2[C@@H]3CC=C4C[C@@H](O)CC[C@]4(C)[C@H]3CC[C@@]21C [PCN, pregnenolone 16 alpha-carbonitrile]",fold increase in luciferase activity,[3],only a minor increase
same,"fold increase in luciferase activity above DMSO, single concentrations (FIG. 14)",hPXR / CYP3A4 enhancer,less than two
same,"fold increase in luciferase activity above DMSO, single concentrations (FIG. 15)",CYP3A4 enhancer (PXRE),less than one
same,MDR1 expression in LS174T cells (in words),"MDR1 P-glycoprotein mRNA; LS174T cells, 48 hours",only a slightly increase
same,CYP3A4 induction by Northern blot (in words),CYP3A4 mRNA (PXR),not
COc1ccc2[nH]c([S+]([O-])Cc3ncc(C)c(OC)c3C)nc2c1 (stereo not drawn) [omeprazole],fold increase in luciferase activity,[4],3-6 fold
same,dose dependence of luciferase induction (in words),[5],dose-dependent luciferase induction
same,dose dependence of luciferase induction (in words),[2],dose-dependent luciferase induction

# — patent US20040077080A1, “Compositions and methods for induction of proteins involved in xenobiotic metabolism” (priority 2000, published 2004)
